Laboratory results as given in patent publication US20200024278A1, “COMPOSITION COMPRISING ANTIBIOTIC COMPOUND AND AN HETEROCYCLIC COMPOUND AND THEIR USE IN PREVENTING OR TREATING BACTERIAL INFECTIONS” (MUTABILIS, priority 2016, published 2020).

Legend:
Assay in all cases: MIC, broth microdilution (CLSI), substance alone or ATB combined with compound at 4 or 8 μg/mL
Type in all cases: cell-based, A. baumannii
[1] = system: ABA 107292
Description: (§1) Compounds of the present invention were assessed against genotyped bacterial strains alone or in combination with an antibacterial. In the assays, MICs of said compounds or combination of antibiotics with fixed concentrations of said compounds (4 or 8 μg/mL) were determined by the broth microdilution method according to the Clinical Laboratory Standards Institute (CLSI-M7-A7). Briefly, compounds alone according to the invention were prepared in DMSO and spotted (2 μL each) on sterile polystyrene plates (Corning, 3788). Combinations of compounds and antibiotics dilutions were prepared in DMSO and spotted (1 μL each) on sterile polystyrene plates (Corning, 3788). Log phase bacterial suspensions were adjusted to a final density of 5·10^5 CFU/mL in cation-adjusted Mueller-Hinton broth (ca-MHB; Becton-Dickinson and Company) and added to each well (98 μL). Assays including Fosfomycin were supplemented with 25 μg/ml of Glucose-6-phosphate. Microplates were incubated for 16-20 h at 35° C. in ambient air. The MIC of the compounds was defined as the lowest concentration of said compounds that prevented bacterial growth as read by visual inspection. The MIC of ATB at each compound concentration was defined as the lowest concentration of ATB that prevented bacterial growth as read by visual inspection.

[2] = system: ABA 19606
Description: as §1

[3] = system: ABA UFR151
Description: as §1

[4] = system: ABA UFR152
Description: as §1

[5] = system: ABA UFR153
Description: as §1

[6] = system: ABA UFR154
Description: as §1

[7] = system: ABA UFR155
Description: as §1

CC1(C)[C@H](C(=O)O)N2C(=O)C[C@H]2S1(=O)=O [SUL]
MIC ATB alone ([1]; antibiotic alone): 64 µg/mL | MIC ATB combined with Example 1 @8 μg/ml ([1]; with Example 1 @8 μg/ml): 4 µg/mL | MIC ATB combined with Example 3 @8 μg/ml ([1]; with Example 3 @8 μg/ml): 2 µg/mL | MIC ATB combined with Example 6 @8 μg/ml ([1]; with Example 6 @8 μg/ml): 8 µg/mL | MIC ATB combined with Example 9 @4 μg/ml ([1]; with Example 9 @4 μg/ml): 8 µg/mL | MIC ATB combined with Example 10 @8 μg/ml ([1]; with Example 10 @8 μg/ml): 4 µg/mL | MIC ATB combined with Example 11 @8 μg/ml ([1]; with Example 11 @8 μg/ml): 32 µg/mL | MIC ATB combined with Example 12 @8 μg/ml ([1]; with Example 12 @8 μg/ml): 2 µg/mL | MIC ATB combined with Example 15 @4 μg/ml ([1]; with Example 15 @4 μg/ml): 4 µg/mL | MIC ATB alone ([2]; antibiotic alone): 1 µg/mL | MIC ATB combined with Example 1 @8 μg/ml ([2]; with Example 1 @8 μg/ml): 1 µg/mL | MIC ATB combined with Example 3 @8 μg/ml ([2]; with Example 3 @8 μg/ml): <=0.25 μg/mL | MIC ATB combined with Example 6 @8 μg/ml ([2]; with Example 6 @8 μg/ml): <=0.25 μg/mL | MIC ATB combined with Example 9 @4 μg/ml ([2]; with Example 9 @4 μg/ml): <=0.25 μg/mL | MIC ATB combined with Example 10 @8 μg/ml ([2]; with Example 10 @8 μg/ml): <=0.25 μg/mL | MIC ATB combined with Example 11 @8 μg/ml ([2]; with Example 11 @8 μg/ml): <=0.25 μg/mL | MIC ATB combined with Example 12 @8 μg/ml ([2]; with Example 12 @8 μg/ml): <=0.25 μg/mL | MIC ATB combined with Example 15 @4 μg/ml ([2]; with Example 15 @4 μg/ml): <=0.25 μg/mL | MIC ATB alone ([3]; antibiotic alone): 2 µg/mL | MIC ATB combined with Example 1 @8 μg/ml ([3]; with Example 1 @8 μg/ml): 0.5 µg/mL | MIC ATB combined with Example 3 @8 μg/ml ([3]; with Example 3 @8 μg/ml): <=0.25 μg/mL | MIC ATB combined with Example 6 @8 μg/ml ([3]; with Example 6 @8 μg/ml): <0.25 µg/mL | MIC ATB combined with Example 9 @4 μg/ml ([3]; with Example 9 @4 μg/ml): 0.5 µg/mL | MIC ATB combined with Example 10 @8 μg/ml ([3]; with Example 10 @8 μg/ml): <=0.25 μg/mL | MIC ATB combined with Example 11 @8 μg/ml ([3]; with Example 11 @8 μg/ml): <=0.25 μg/mL | MIC ATB combined with Example 12 @8 μg/ml ([3]; with Example 12 @8 μg/ml): <=0.25 μg/mL | MIC ATB combined with Example 15 @4 μg/ml ([3]; with Example 15 @4 μg/ml): <=0.25 μg/mL | MIC ATB alone ([4]; antibiotic alone): 4 µg/mL | MIC ATB combined with Example 1 @8 μg/ml ([4]; with Example 1 @8 μg/ml): 4 µg/mL | MIC ATB combined with Example 3 @8 μg/ml ([4]; with Example 3 @8 μg/ml): 1 µg/mL | MIC ATB combined with Example 6 @8 μg/ml ([4]; with Example 6 @8 μg/ml): 2 µg/mL | MIC ATB combined with Example 9 @4 μg/ml ([4]; with Example 9 @4 μg/ml): 2 µg/mL | MIC ATB combined with Example 10 @8 μg/ml ([4]; with Example 10 @8 μg/ml): 1 µg/mL | MIC ATB combined with Example 11 @8 μg/ml ([4]; with Example 11 @8 μg/ml): 1 µg/mL | MIC ATB combined with Example 12 @8 μg/ml ([4]; with Example 12 @8 μg/ml): 1 µg/mL | MIC ATB combined with Example 15 @4 μg/ml ([4]; with Example 15 @4 μg/ml): 2 µg/mL | MIC ATB alone ([5]; antibiotic alone): 4 µg/mL | MIC ATB combined with Example 1 @8 μg/ml ([5]; with Example 1 @8 μg/ml): 1 µg/mL | MIC ATB combined with Example 3 @8 μg/ml ([5]; with Example 3 @8 μg/ml): <=0.25 μg/mL | MIC ATB combined with Example 6 @8 μg/ml ([5]; with Example 6 @8 μg/ml): <=0.25 μg/mL | MIC ATB combined with Example 9 @4 μg/ml ([5]; with Example 9 @4 μg/ml): 0.5 µg/mL | MIC ATB combined with Example 10 @8 μg/ml ([5]; with Example 10 @8 μg/ml): <=0.25 μg/mL | MIC ATB combined with Example 11 @8 μg/ml ([5]; with Example 11 @8 μg/ml): <=0.25 μg/mL | MIC ATB combined with Example 12 @8 μg/ml ([5]; with Example 12 @8 μg/ml): <=0.25 μg/mL | MIC ATB combined with Example 15 @4 μg/ml ([5]; with Example 15 @4 μg/ml): <=0.25 μg/mL | MIC ATB alone ([6]; antibiotic alone): 8 µg/mL | MIC ATB combined with Example 1 @8 μg/ml ([6]; with Example 1 @8 μg/ml): 1 µg/mL | MIC ATB combined with Example 3 @8 μg/ml ([6]; with Example 3 @8 μg/ml): 0.5 µg/mL | MIC ATB combined with Example 6 @8 μg/ml ([6]; with Example 6 @8 μg/ml): <=0.25 μg/mL | MIC ATB combined with Example 9 @4 μg/ml ([6]; with Example 9 @4 μg/ml): 0.5 µg/mL | MIC ATB combined with Example 10 @8 μg/ml ([6]; with Example 10 @8 μg/ml): <=0.25 μg/mL | MIC ATB combined with Example 11 @8 μg/ml ([6]; with Example 11 @8 μg/ml): <=0.25 μg/mL | MIC ATB combined with Example 12 @8 μg/ml ([6]; with Example 12 @8 μg/ml): <=0.25 μg/mL | MIC ATB combined with Example 15 @4 μg/ml ([6]; with Example 15 @4 μg/ml): 0.5 µg/mL | MIC ATB alone ([7]; antibiotic alone): 16 µg/mL | MIC ATB combined with Example 1 @8 μg/ml ([7]; with Example 1 @8 μg/ml): 4 µg/mL | MIC ATB combined with Example 3 @8 μg/ml ([7]; with Example 3 @8 μg/ml): 1 µg/mL | MIC ATB combined with Example 6 @8 μg/ml ([7]; with Example 6 @8 μg/ml): 2 µg/mL
